Laboratory results published in patent publication US20180353457A1, “ABIETANE DITERPENOID 7-ACETOXYROYLEANONES FOR USE IN CANCER TREATMENT” (University of South Carolina, priority 2017, published 2018).

Test system: leukemia cell lines
Experiment: NCI-60 one dose screen, leukemia cell lines
Format: cell-based
Settings: 10 μM, each leukemia cell line
Protocol: One dose and five dose cytotoxicity screening was performed by the NCI-60 screening program of the National Institutes of Health (NIH), which is known in the art and available from the NIH. The NCI-60 panel is a collection of cancer cell lines, from various diverse tumors, which was developed in the 1980s by the National Cancer Institute to aid screening efforts for cytotoxic or cytostatic compounds.
In these screens, 60 cell lines, were utilized to determine the cytotoxic effect of small molecules, natural products, and other drug candidates. […]
The five dose screen was performed by creating four 10-fold dilutions of the highest concentration of the diluted 7-acetoxyroyleanone made in the same manner as the one dose screen. […] The bound stain was then dissolved in 10 mM trizma base and the absorbance was read using an automated plate reader at 515 nm. […]

Compound: CC(=O)O[C@@H]1C[C@H]2C(C)(C)CCC[C@]2(C)C2=C1C(=O)C(C(C)C)=C(O)C2=O [7-acetoxyroyleanone]
- cell death versus growth inhibition: did not appear to induce cell death, but rather growth inhibition
